These are literature values, as cited in patent publication US20230285350A1, “FORMULATIONS FOR TETRACAINE AND LIDOCAINE” (LYOTIP, INC., priority 2020, published 2023).

`CNC[C@H](O)c1ccc(O)c(O)c1` [Epinephrine]: where the note is “used with tetracaine”, the “prolongation of numbing effect and motor block effect of the anesthetic” value is on record as “up to an hour”.

Consider `CCCCNc1ccc(C(=O)OCCN(C)C)cc1` [Tetracaine], for which, under “used in the eyes”, the Onset of effects was no more than 30 s and the duration of effects result is “less than 15 minutes”.

On to `CCN(CC)CC(=O)Nc1c(C)cccc1C` [lidocaine, Lidocaine], for which the duration of effect entry (used as an injectable) is reported as “half an hour to three hours”.
